Experimental data as given in patent US6887896B1, “7-[(7-Alkoxy)-chrom-3-en-6-yl]-heptatrienoic acid and 7-[(3-alkoxy)-5,6-dihydronaphthalen-2-yl]-heptatrienoic acid derivatives having serum glucose reducing activity” (Allergan, Inc., priority 2003, dated 2005).
pEC50, pKi: −log10 of the molar value.

What was measured:
RXRβ [1] = biological target: T1, RXRβ (UniProt P28704); assay: holoreceptor transactivation assay, RXRβ; assay type: cell-based; conditions: for pEC50: holoreceptor transactivation, read-out: RXR Trans. EC50 β; for RXR Trans. efficacy (number in parentheses) β: percentage compared to the standard compound
T1 sequence (P28704 1-520): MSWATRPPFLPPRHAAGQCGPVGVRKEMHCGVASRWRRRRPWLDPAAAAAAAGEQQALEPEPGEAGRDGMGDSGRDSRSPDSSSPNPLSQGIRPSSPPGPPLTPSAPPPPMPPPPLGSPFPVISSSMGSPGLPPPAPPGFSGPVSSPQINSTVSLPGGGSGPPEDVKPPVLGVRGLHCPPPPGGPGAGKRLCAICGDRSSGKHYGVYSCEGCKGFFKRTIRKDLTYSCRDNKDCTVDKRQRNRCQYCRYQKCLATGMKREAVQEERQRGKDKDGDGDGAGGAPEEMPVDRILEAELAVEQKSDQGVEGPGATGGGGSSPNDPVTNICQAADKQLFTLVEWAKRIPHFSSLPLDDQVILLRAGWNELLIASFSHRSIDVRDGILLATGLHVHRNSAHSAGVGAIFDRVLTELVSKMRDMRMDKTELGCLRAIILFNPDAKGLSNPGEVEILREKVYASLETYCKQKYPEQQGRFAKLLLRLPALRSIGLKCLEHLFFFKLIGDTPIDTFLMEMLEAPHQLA
From the text: (§1) Specifically, one such assay is a chimeric receptor transactivation assay which tests for agonist-like activity in the R RAPE and RAR7 receptor subtypes, and which is based on work published by Feigner, P. L. and Holm, M (1989) Focus, 112 is described in detail in U.S. Pat. No. 5,455,265. The specification of U.S. Pat. No. 5,455,265 is hereby expressly incorporated by reference. A holoreceptor transactivation assay and a ligand binding assay which measure the antagonist/agonist like activity of the compounds of the invention, or their ability to bind to the several retinoid receptor subtypes, respectively, are described in published PCT Application No. WO WO93/11755 (particularly on pages 30-33 and 37-41) published on Jun. 24, 1993, the specification of which is also incorporated herein by reference. A detailed experimental procedure for holoreceptor transactivations has been described by Heyman et al. Cell 68, 397-406, (1992); Allegretto et al. J. Biol. Chem. 268, 26625-26633, and Mangelsdorf et al. The Retinoids: Biology, Chemistry and Medicine, pp 319-349, Raven Press Ltd., New York, which are expressly incorporated herein by reference. The results obtained in this assay are expressed in EC50 numbers, as they are also in the chimeric receptor transactivation assay. The results of the ligand binding assay are expressed in Ki numbers. (See Cheng et al. Biochemical Pharmacology Vol. 22 pp 3099-3108, expressly incorporated herein by reference.)
Efficacy in a transactivation assay is expressed as a percentage of the maximum potency attained by the compound compared to a standard which, in this case, is the compound named (2E,4E,1′S,2′S)-3-methyl-5-[2′-methyl-2′-(5,5,8,8-tetramethyl-5,6,7,8-tetrahydro-naphthalen-2-yl)-cyclopropyl]-penta-2,4-dienoic acid. This standard compound is described in U.S. Pat. No. 6,114,533.
The specification of this application for patent is organized in several sections in accordance with structural Formulas A through F each of which discloses a group of preferred compounds within the scope of the invention. Tables that disclose the activity of certain exemplary compounds of the invention in the above-described RXR receptor transactivation and binding assays are found in the corresponding sections. […] The transactivation data pertaining to the activation of RXR receptors were obtained in the holoreceptor assay.
(§2) Generally speaking, in the tables disclosing the results of transactivation and binding assays the numbers in parentheses indicate efficacy as a percentage compared to the standard compound, (2E,4E,1′S,2′S)-3-methyl-5-[2′-methyl-2′-(5,5,8,8-tetramethyl-5,6,7,8-tetrahydro-naphthalen-2-yl)cyclopropyl]-penta-2,4-dienoic acid and the other numbers indicate the measured EC50 and K; in nanomolar concentration.

RARα = biological target: T2, RARα (Homo sapiens, UniProt P10276); assay: ligand binding assay, RARα; conditions: read-out: RAR Bind. Ki α
T2 sequence (P10276 1-462): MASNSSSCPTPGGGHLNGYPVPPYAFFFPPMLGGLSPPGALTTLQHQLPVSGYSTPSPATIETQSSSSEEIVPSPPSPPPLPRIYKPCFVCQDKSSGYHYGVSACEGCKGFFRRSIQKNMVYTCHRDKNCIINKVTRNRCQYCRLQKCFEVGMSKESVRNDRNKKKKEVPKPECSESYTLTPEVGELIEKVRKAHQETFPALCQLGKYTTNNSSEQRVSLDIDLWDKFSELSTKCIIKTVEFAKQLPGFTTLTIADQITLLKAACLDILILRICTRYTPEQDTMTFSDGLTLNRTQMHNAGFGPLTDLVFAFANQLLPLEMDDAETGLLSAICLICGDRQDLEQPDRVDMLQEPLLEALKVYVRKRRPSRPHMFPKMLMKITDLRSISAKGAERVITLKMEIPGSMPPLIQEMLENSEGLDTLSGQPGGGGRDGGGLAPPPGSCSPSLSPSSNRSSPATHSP
From the text: as §1, §2

RARγ = biological target: T3, RARγ (Homo sapiens, UniProt P13631); assay: ligand binding assay, RARγ; conditions: read-out: RAR Bind. Ki γ
T3 sequence (P13631 1-454): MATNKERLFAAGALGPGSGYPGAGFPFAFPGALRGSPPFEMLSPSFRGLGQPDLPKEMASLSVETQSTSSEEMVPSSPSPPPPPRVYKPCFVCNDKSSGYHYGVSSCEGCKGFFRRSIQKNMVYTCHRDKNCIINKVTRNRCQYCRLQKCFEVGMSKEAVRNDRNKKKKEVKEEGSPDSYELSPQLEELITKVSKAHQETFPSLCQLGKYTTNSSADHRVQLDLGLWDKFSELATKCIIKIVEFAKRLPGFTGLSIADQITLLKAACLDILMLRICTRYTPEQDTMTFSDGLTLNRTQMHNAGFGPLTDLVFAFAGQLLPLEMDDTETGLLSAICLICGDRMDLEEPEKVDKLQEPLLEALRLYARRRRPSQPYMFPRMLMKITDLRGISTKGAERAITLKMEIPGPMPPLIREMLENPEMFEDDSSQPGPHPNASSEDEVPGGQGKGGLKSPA
From the text: as §1, §2

RXRβ [2] = biological target: T1, RXRβ; assay: ligand binding assay, RXRβ; conditions: read-out: RXR Bind Ki β
From the text: as §1, §2

SMILES	pEC50 (RXRβ [1])	RXR Trans. efficacy (number in parentheses) β (RXRβ [1])	pKi (RARα)	pKi (RARγ)	pKi (RXRβ [2])
CCC1=CC(C)(C)Oc2cc(OC)c(\C(C)=C/C=C/C(C)=C/C(=O)O)cc21 [Compound 42, 7-(4-Ethyl-7-methoxy-2,2-dimethyl-2H-chromen-6-yl)-3-methyl-octa-2E,4E,6Z-trienoic acid]	7.26	98%	5.05	< 5.00	6.64
COc1c(\C(C)=C/C=C/C(C)=C/C(=O)O)cc2c(c1Cl)OC(C)(C)C=C2C(C)C [Compound 49, 7-(8-Chloro-4-isopropyl-7-methoxy-2,2-dimethyl-2H-chromen-6-y)-3-methyl-octa-2E,4E,6Z-trienoic acid]	9.05	98%	6.00	< 5.00	7.70
CCOc1c(\C(C)=C/C=C/C(C)=C/C(=O)O)cc2c(c1Cl)OC(C)(C)C=C2C(C)C [Compound 50, 7-(8-Chloro-4-isopropyl-7-ethoxy-2,2-dimethyl-2H-chromen-6-yl)-3-methyl-octa-2E,4E,6Z-trienoic acid]	7.72	57%	6.13	5.23	7.12
CCC1=CC(C)(C)Oc2cc(OC)c(\C(C)=C(F)/C=C/C(C)=C/C(=O)O)cc21 [Compound 120, 7-(4Ethyl-7-methoxy-2,2-dimethyl-2H-chromen-6-yl)-6-fluoro-3-methyl-octa-2E,4E,6E-trienoic acid]	< 5.00	–	5.39	< 5.00	5.59
COc1cc2c(cc1\C(C)=C(F)/C=C/C(C)=C/C(=O)O)C(C(C)C)=CC(C)(C)O2 [Compound 121, (2E,4E,6E)-6-Fluoro-7-(4-isopropyl-7-methoxy-2,2-dimethyl-2H-chromen-6-yl)-3-methyl-octa-2,4,6-trienoic acid]	7.29	72%	6.16	5.06	7.48
COc1cc2c(cc1\C(C)=C(F)/C=C/C(C)=C/C(=O)O)C(C(C)(C)C)=CC(C)(C)O2 [Compound 122, 7-(4-tert-Butyl-7-methoxy-2,2-dimethyl-2H-chromen-6-yl)-6-fluoro-3-methyl-octa-2E,4E,6E-trienoic acid]	7.46	61%	6.10	5.41	6.96
CCOc1cc2c(cc1\C(C)=C(F)/C=C/C(C)=C/C(=O)O)C(CC)=CC(C)(C)O2 [Compound 123, 7-(7-Ethoxy-4-ethyl-2,2-dimethyl-2H-chromen-6-yl)-6-fluoro-3-methyl-octa-2E,4E,6E-trienoic acid]	–	–	< 5.00	< 5.00	< 5.00
CC/C(=C(F)/C=C/C(C)=C/C(=O)O)c1cc2c(cc1OC)OC(C)(C)C=C2C(C)(C)C [Compound 131, 7-(4-tert-Butyl-7-methoxy-2,2-dimethyl-2H-chromen-6-yl)-6-fluoro-3-methyl-nona-2E,4E,6E-trienoic acid]	7.19	47%	6.08	5.48	7.03
CCCOc1cc2c(cc1\C(C)=C(F)/C=C/C(C)=C/C(=O)O)C(C(C)C)=CCC2(C)C [Compound A-80]	–	–	6.08	5.19	7.25
CCCOc1cc2c(cc1\C(C)=C(F)/C=C/C(C)=C/C(=O)O)C(C(C)(C)C)=CCC2(C)C [Compound A-84, (2E,4E,6E)-6-Fluoro-3-(4,$dimethyl-6-n-propoxy-1-tert-butyl-3,4-dihydronaphthalen-7-yl)-3-methyl-2,4,6-octatrienoic acid]	–	–	5.96	6.56	7.00

Stronger by pKi (RARα), values ahead:

pEC50 (RXRβ [1])	RXR Trans. efficacy (number in parentheses) β (RXRβ [1])	pKi (RARα)	pKi (RARγ)	pKi (RXRβ [2])	SMILES
7.92	59%	6.58	5.92	7.82	CCOc1cc2c(cc1\C(C)=C(F)/C=C/C(C)=C/C(=O)O)C(C)=CCC2(C)C
8.36	94%	6.67	5.46	7.42	CC/C(=C/C=C/C(C)=C/C(=O)O)c1cc2c(cc1OC)OC(C)(C)C=C2C(C)C [Compound 44, 7-(4-Isopropyl-7-methoxy-22-dimethyl-2H-chromen-6-yl)-3-methyl-nona-2E,4E,6Z-trienoic acid]
< 6.00	–	6.21	5.47	5.77	CCOc1cc2c(cc1\C(=C/C=C/C(C)=C/C(=O)O)CC)C(C)=CC(C)(C)O2 [Compound 46, 7-(7-Ethoxy-2,2,4-trimethyl-2H-chromen-6-yl)-3-methyl-nona-2E,4E,6Z-trienoic acid]
7.06	26%	6.37	5.31	6.95	CCOc1c(\C(=C/C=C/C(C)=C/C(=O)O)CC)cc2c(c1Cl)OC(C)(C)C=C2C(C)C [Compound 51]
< 5.00	–	6.83	5.62	5.96	CCOc1cc2c(cc1\C(CC)=C(F)/C=C/C(C)=C/C(=O)O)C(C)=CC(C)(C)O2 [Compound 132, 7-(7-Ethoxy-2,2,4-trimethyl-2H-chromen-6-yl)-6-fluoro-3-methyl-nona-2E,4E,6E-trienoic acid]
< 6.00	–	6.52	–	7.20	CCOc1cc2c(cc1\C(CC)=C(F)/C=C/C(C)=C/C(=O)O)C=CCC2(C)C [Compound A-77]
–	–	6.23	5.25	7.48	CC(/C=C/C(F)=C(/C)c1cc2c(cc1OCC1CC1)C(C)(C)CC=C2C(C)C)=C\C(=O)O [Compound A-81, (2E,4E,6E)-6-Fluoro-3-(4-dimethyl-6-(cyclopropyl)methoxy-1-isopropyl-3,4-dihydronaphthalen-7-yl)-3-methyl-2,4.6-octa-trienoic acid]
